{"source": "patent US20080027088A1", "about": "“Imidazole-Based Hmg-Coa Reductase Inhibitors” (Warner-Lambert Company, LLC, priority 2004, published 2008)", "key": {"[1]": {"biological_target": "T1, serine palmitoyltransferase (SPT) (Mus musculus, UniProt O35704+P97363)", "T1 construct": "from tissue; host or cells: mouse liver (ApoE KO and C57Bl/6J mice), cell-free homogenate", "T1 sequence (P97363 1-560)": "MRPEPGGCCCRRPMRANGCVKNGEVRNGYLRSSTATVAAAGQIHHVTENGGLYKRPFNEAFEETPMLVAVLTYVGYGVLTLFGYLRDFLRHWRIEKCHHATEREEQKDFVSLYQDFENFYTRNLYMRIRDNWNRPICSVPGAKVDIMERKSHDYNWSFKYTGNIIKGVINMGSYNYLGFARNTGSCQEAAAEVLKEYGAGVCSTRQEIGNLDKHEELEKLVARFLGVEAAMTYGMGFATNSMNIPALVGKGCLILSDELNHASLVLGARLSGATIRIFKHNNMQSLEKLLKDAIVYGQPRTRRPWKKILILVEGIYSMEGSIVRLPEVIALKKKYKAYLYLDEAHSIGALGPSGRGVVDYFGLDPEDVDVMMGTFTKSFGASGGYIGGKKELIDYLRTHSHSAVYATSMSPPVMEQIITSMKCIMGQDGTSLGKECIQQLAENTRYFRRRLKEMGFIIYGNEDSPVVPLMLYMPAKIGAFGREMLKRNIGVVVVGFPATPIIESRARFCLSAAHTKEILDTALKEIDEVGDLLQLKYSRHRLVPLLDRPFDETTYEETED", "T1 sequence (O35704 1-473)": "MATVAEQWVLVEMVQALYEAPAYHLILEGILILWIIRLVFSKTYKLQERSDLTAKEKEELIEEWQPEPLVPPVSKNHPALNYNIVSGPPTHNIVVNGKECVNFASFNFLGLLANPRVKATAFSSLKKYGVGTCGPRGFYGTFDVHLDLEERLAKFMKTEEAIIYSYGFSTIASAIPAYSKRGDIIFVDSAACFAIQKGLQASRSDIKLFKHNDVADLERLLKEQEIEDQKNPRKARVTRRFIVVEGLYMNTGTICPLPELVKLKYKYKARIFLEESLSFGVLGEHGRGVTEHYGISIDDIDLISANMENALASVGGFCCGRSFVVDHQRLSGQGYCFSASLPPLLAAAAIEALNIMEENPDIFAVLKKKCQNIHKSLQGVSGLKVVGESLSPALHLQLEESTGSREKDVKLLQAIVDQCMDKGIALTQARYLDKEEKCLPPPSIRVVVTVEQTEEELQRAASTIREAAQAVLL", "T1 sequence (Q8R207 1-71 partner)": "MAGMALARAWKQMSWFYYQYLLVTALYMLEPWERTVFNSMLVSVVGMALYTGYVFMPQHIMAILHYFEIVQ", "assay": "SPT activity of liver cell-free homogenate (14C-serine, palmitoyl CoA, TLC)", "assay_type": "in vivo, mice", "details": "0.3 mg/kg/day, 12 weeks", "method": "Liver tissues from each group were homogenized and SPT activity was measured using ^14C-serine and palmitoyl CoA as substrates and thin-layer chromatography (TLC) analysis (K. Gable et al., J. Biol. Chem. 2000;275(11):7597-603). FIGS. 1-A, 1-B, 1-C, 1-D and 1-E. SPT gene expression and enzyme activity. Mice were treated with 0.3 mg/kg/day myriocin for 12 weeks by mixing with Western diet chow. Liver was isolated and total mRNA and cell-free homogenate were prepared. SPT mRNA expression was quantified by quantitative RT-PCR. Expression was described as a ratio of LCB1 (A) or LCB2 (B) mRNA to 18s RNA or to rodent GAPDH RNA (n=5, P>0.05). SPT activity of cell-free homogenate (C) was measured with ^14C-labeled Serine and palmitoyl-coenzyme A as substrates and analyzed by TLC. Relative amounts of 3-ketosphinganine were determined by densitometry scanning. The values reported are mean±SEM (n=3, *P<0.05)."}, "[2]": {"tested_on": "ApoE KO mice fed a Western diet", "assay": "Incorporation of T lymphocytes into lesion of aortic root", "assay_type": "in vivo", "details": "12 weeks", "method": "For histological analysis, the mice were perfused and fixed in Zinc-Tris fixative. Paraffin embedded sections were stained with Masson's Trichrome. Intimal macrophages were immunohistochemically stained using MAC-2 antibody (clone M3/38 from Cedarlane Laboratories Limited) counterstained with Verhoeff elastic stain. T-lymphocytes were immunohistochemically stained with rat CD3 antibody (clone CD3-12, Serotec). Lesion thickness and area occupied by macrophages were determined using Image Pro Plus software. FIG. 14. Incorporation of T lymphocytes into lesion of aortic root. Cross section of aortic root was stained by rat CD3 antibody and developed by diaminobenzidine (brown color) to detect incorporated T lymphocytes. Sections were counterstained with Harris hematoxylin (blue). T-lymphocyte incorporation was quantified by measuring number of intimal T lymphocytes in aortic root (FIG. 14). Values are mean±SEM (n=5; *P<0.05, Western diet vs standard chow; #P<0.05, Western diet plus myriocin vs standard chow). Bar represents 50 μm."}}}
{"smiles": "CCCCCCC(=O)CCCCCC/C=C/C[C@@H](O)[C@H](O)[C@@](N)(CO)C(=O)O", "note": "[myriocin]", "values": [{"measurement": "decrease of SPT activity in the liver", "setting": "[1]; compared with the C57BI/6J control group", "result": 48, "unit": "%"}, {"measurement": "decrease of SPT activity in the liver", "setting": "[1]; compared with untreated Western diet-fed ApoE KO mice", "result": 66, "unit": "%"}, {"measurement": "accumulation of T cells in lesion of aortic root", "setting": "[2]", "result": "not affected"}]}
